Columns and labels:
Puccinia recondita = experiment: In vivo preventive test on Puccinia recondita (brown rust on wheat); conditions: 500 ppm, wheat plants sprayed 24 h before contamination, graded 12 days after contamination
Method: Wheat plants (“Scipion” variety), sown in starter cups on a 50/50 peat soil-pozzolana substrate and grown at 22° C., are treated at the 1-leaf stage (10 cm height) by spraying with the active ingredient prepared as described above. Plants, used as controls, are treated with the mixture of acetone/tween/DMSO/water not containing the active material. After 24 hours, the plants are contaminated by spraying the leaves with an aqueous suspension of Puccinia recondita spores (100 000 spores per ml). The spores are collected from an infected plant and are suspended in water to containing 2.5 ml/l of Tween 80 at 10%. […] Grading (% of efficacy) is carried out 12 days after the contamination, in comparison with the control plants.

[1] = logP by HPLC on reversed phase columns (EEC directive 79/831 Annex V.A8); type: physicochemical; conditions: method [a]: LC-MS at pH 2.7, 0.1% formic acid in water / acetonitrile
Uromyces appendiculatus = experiment: In vivo preventive test on Uromyces appendiculatus (bean rust); conditions: preventive, bean plants, dose of 500 ppm, grading 11 days after contamination
Method: Bean plants (“Saxa” variety), sown in starter cups on a 50/50 peat soil-pozzolana substrate and grown at 24° C., are treated at the 2-leaf stage (9 cm height) by spraying with the active ingredient prepared as described above. Plants, used as controls, are treated with the mixture of acetone/tween/DMSO/water not containing the active material. After 24 hours, the plants are contaminated by spraying the leaves with an aqueous suspension of Uromyces appendiculatus spores (150 000 spores per ml). The spores are collected from infected plants and are suspended in water containing 2.5 ml/1 of Tween 80 at 10%. […] Grading (% of efficacy) is carried out 11 days after the contamination, in comparison with the control plants.

Sphaerotheca fuliginea = experiment: In vivo preventive test on Sphaerotheca fuliginea (powdery mildew on cucurbits); conditions: 500 ppm, gherkin plants sprayed 24 h before contamination, graded 12 days after contamination
Method: Gherkin plants (“Vert petit de Paris” variety), sown in starter cups on a 50/50 peat soil-pozzolana substrate and grown at 24° C., are treated at the Z11 cotyledon stage by spraying with the active ingredient prepared as described above. Plants, used as controls, are treated with the mixture of acetone/tween/DMSO/water not containing the active material. After 24 hours, the plants are contaminated by spraying the cotyledons with an aqueous suspension of Sphaerotheca fuliginea spores (100 000 spores per ml). The spores are collected from infected plants. […] Grading (% of efficacy) is carried out 12 days after the contamination, in comparison with the control plants.

Septoria tritici = experiment: In vivo preventive test on Septoria tritici (leaf spot on wheat); conditions: 500 ppm, wheat plants sprayed 24 h before contamination, graded 24 days after contamination
Method: Wheat plants (“Scipion” variety), sown in starter cups on a 50/50 peat soil-pozzolana substrate and grown at 22° C., are treated at the 1-leaf stage (10 cm height) by spraying with the active ingredient prepared as described above. Plants, used as controls, are treated with the mixture of acetone/tween/DMSO/water not containing the active material. After 24 hours, the plants are contaminated by spraying the leaves with an aqueous suspension of cryopreserved Septoria tritici spores (500 000 spores per ml). The contaminated wheat plants are incubated for 72 hours at 18° C. and at 100% relative humidity, and then for 21 days at 90% relative humidity. Grading (% of efficacy) is carried out 24 days after the contamination, in comparison with the control plants.

[2] = compounds of formula (I), Table 1
[3] = amines of formula (III-a), Table 2

## CON=C1c2cccc(NC(=O)c3c(C)nn(C)c3F)c2CC1(C)C (mixture of isomers) [Example 34]
Puccinia recondita
  Eff. %: 71%

## CON=C1c2cccc(NC(=O)c3c(C)nn(C)c3C)c2CC1(C)C (mixture of isomers) [Example 35]
Puccinia recondita
  Eff. %: 79%

## CC(C)c1nn(C)cc1C(=O)Nc1cccc2c1CC(C(C)C)C2(C)C (racemic) [Example 61]
[1]; [2]
  logP: 4.56[a]

## Cc1c(C(=O)Nc2cccc3c2CC(C(C)C)C3(C)C)cnn1C (racemic) [Example 62]
Uromyces appendiculatus
  Eff. %: 99%
[1]; [2]
  logP: 3.73[a]
Puccinia recondita
  Eff. %: 81%

## CCc1c(C(=O)Nc2cccc3c2CC(CC)C3(C)C)cnn1C (racemic) [Example 63]
[1]; [2]
  logP: 3.83[a]

## CCCc1nn(C)cc1C(=O)Nc1cccc2c1CC(CC)C2(C)C (racemic) [Example 64]
[1]; [2]
  logP: 4.2[a]

## CCCc1nn(C)c(F)c1C(=O)Nc1cccc2c1CC(C(C)C)C2(C)C (racemic) [Example 65]
[1]; [2]
  logP: 5.29[a]

## CCC1Cc2c(NC(=O)c3cn(C)nc3C(C)C)cccc2C1(C)C (racemic) [Example 67]
[1]; [2]
  logP: 4.18[a]

## CCC1(CC)Cc2c(NC(=O)c3c(C)nn(C)c3F)cccc2C1C (racemic) [Example 70]
Uromyces appendiculatus
  Eff. %: 100%
Sphaerotheca fuliginea
  Eff. %: 98%
[1]; [2]
  logP: 4.32[a]
Puccinia recondita
  Eff. %: 98%

## Cc1c(C(=O)Nc2cccc3c2CC(C)C3(C)C)cnn1C (racemic) [Example 71]
Uromyces appendiculatus
  Eff. %: 79%
[1]; [2]
  logP: 3[a]
Septoria tritici
  Eff. %: 97%
Puccinia recondita
  Eff. %: 81%

## CCc1nn(C)cc1C(=O)Nc1cccc2c1CC(C)C2(C)C (racemic) [Example 73]
Uromyces appendiculatus
  Eff. %: 100%
[1]; [2]
  logP: 3.27[a]
Puccinia recondita
  Eff. %: 88%

## CC1Cc2c(NC(=O)c3cn(C)nc3[N+](=O)[O-])cccc2C1(C)C (racemic) [Example 76]
[1]; [2]
  logP: 3.67[a]

## CC1Cc2c(NC(=O)c3c(C4CC4)nn(C)c3Cl)cccc2C1(C)C (racemic) [Example 78]
[1]; [2]
  logP: 4.46[a]

## Cc1nn(C)c(Cl)c1C(=O)Nc1cccc2c1CC(C)C2(C)C (racemic) [Example 80]
Uromyces appendiculatus
  Eff. %: 100%
[1]; [2]
  logP: 3.83[a]
Puccinia recondita
  Eff. %: 98%

## CC1Cc2c(NC(=O)c3c(C(F)(F)F)nn(C)c3C(F)F)cccc2C1(C)C (racemic) [Example 81]
[1]; [2]
  logP: 4.09[a]

## CCc1nn(C)cc1C(=O)Nc1cccc2c1CC(CC)(CC)C2C (racemic) [Example 82]
[1]; [2]
  logP: 4.06[a]

## CC1Cc2c(NC(=O)c3c(C(F)(F)F)nn(C)c3F)cccc2C1(C)C (racemic) [Example 83]
Uromyces appendiculatus
  Eff. %: 100%
[1]; [2]
  logP: 4.09[a]
Puccinia recondita
  Eff. %: 98%

## CC1Cc2c(NC(=O)c3cn(C)nc3C(F)(F)C(F)(F)F)cccc2C1(C)C (racemic) [Example 85]
[1]; [2]
  logP: 4.21[a]

## CC(C)C1Cc2cccc(N)c2C1 (racemic) [Example III-a-1]
[1]; [3]
  logP: 2.25[a]

## CC(C)C1Cc2c(N)cccc2C1(C)C (racemic) [Example III-a-2]
[1]; [3]
  logP: 2.8[a]

## CC1Cc2c(N)cccc2C1(C)C (racemic) [Example III-a-3]
[1]; [3]
  logP: 1.95[a]

## Cn1cc(C(=O)Nc2cccc3c2CC(O)C3)c(C(F)F)n1 (centres unmarked) [Example 1]
Septoria tritici
  Eff. %: 70%

## CCc1nn(C)c(Cl)c1C(=O)Nc1cccc2c1CC(C)C2(C)C (centres unmarked) [Example 7]
Uromyces appendiculatus
  Eff. %: 100%
[1]; [2]
  logP: 4.31[a]
Puccinia recondita
  Eff. %: 96%

## CC1Cc2c(NC(=O)c3c(C(F)(F)F)nn(C)c3Cl)cccc2C1(C)C (centres unmarked) [Example 11]
Uromyces appendiculatus
  Eff. %: 100%
[1]; [2]
  logP: 4.26[a]
Puccinia recondita
  Eff. %: 96%

## CCc1nn(C)c(F)c1C(=O)Nc1cccc2c1CC(C)(C)C2C (centres unmarked) [Example 14]
Uromyces appendiculatus
  Eff. %: 100%
[1]; [2]
  logP: 3.99[a]
Puccinia recondita
  Eff. %: 98%

## Cc1c(C(=O)Nc2cccc3c2CC(C)C3(C)C)c(C(F)(F)F)nn1C (centres unmarked) [Example 18]
[1]; [2]
  logP: 3.83[a]
Puccinia recondita
  Eff. %: 75%

## CCCc1nn(C)c(F)c1C(=O)Nc1cccc2c1CC(C)C2(C)C (centres unmarked) [Example 19]
[1]; [2]
  logP: 4.39[a]

## CCCc1nn(C)cc1C(=O)Nc1cccc2c1CC(C)C2(C)C (centres unmarked) [Example 21]
[1]; [2]
  logP: 3.64[a]
Puccinia recondita
  Eff. %: 75%

## CC1Cc2c(NC(=O)c3cnn(C)c3Cl)cccc2C1(C)C (centres unmarked) [Example 22]
[1]; [2]
  logP: 3.44[a]
Septoria tritici
  Eff. %: 92%
Puccinia recondita
  Eff. %: 81%

## CC(C)c1nn(C)cc1C(=O)Nc1cccc2c1CC(C)C2(C)C (centres unmarked) [Example 23]
Uromyces appendiculatus
  Eff. %: 89%
[1]; [2]
  logP: 3.69[a]
Puccinia recondita
  Eff. %: 81%

## Cc1nn(C)c(C)c1C(=O)Nc1cccc2c1CC(C(C)C)C2(C)C (centres unmarked) [Example 42]
Uromyces appendiculatus
  Eff. %: 100%
Sphaerotheca fuliginea
  Eff. %: 100%
[1]; [2]
  logP: 3.87[a]
Puccinia recondita
  Eff. %: 100%

## Cc1nn(C)c(C)c1C(=O)Nc1cccc2c1CC(C)(C)C2 [Example 43]
[1]; [2]
  logP: 2.77[a]
Puccinia recondita
  Eff. %: 89%

## Cc1nn(C)c(F)c1C(=O)Nc1cccc2c1CC(C)(C)C2 [Example 44]
Uromyces appendiculatus
  Eff. %: 98%
Puccinia recondita
  Eff. %: 78%

## CCc1c(C(=O)Nc2cccc3c2CC(C(C)C)C3(C)C)cnn1C (centres unmarked) [Example 46]
[1]; [2]
  logP: 4.21[a]

## CCCc1nn(C)cc1C(=O)Nc1cccc2c1CC(C(C)C)C2(C)C (centres unmarked) [Example 47]
[1]; [2]
  logP: 4.51[a]

## CCCc1nn(C)c(F)c1C(=O)Nc1cccc2c1CC(CC)C2(C)C (centres unmarked) [Example 48]
Sphaerotheca fuliginea
  Eff. %: 94%
[1]; [2]
  logP: 4.85[a]

## CCC1Cc2c(NC(=O)c3c(C(F)(F)F)nn(C)c3C)cccc2C1(C)C (centres unmarked) [Example 49]
Uromyces appendiculatus
  Eff. %: 99%
[1]; [2]
  logP: 4.3[a]
Puccinia recondita
  Eff. %: 94%

## CCC1(CC)Cc2c(NC(=O)c3c(C)nn(C)c3C)cccc2C1C (centres unmarked) [Example 51]
[1]; [2]
  logP: 3.85[a]

## Cc1nn(C)c(C(F)(F)Cl)c1C(=O)Nc1cccc2c1CC(C(C)C)C2(C)C (centres unmarked) [Example 53]
[1]; [2]
  logP: 4.86[a]

## Cc1c(C(=O)Nc2cccc3c2CC(C(C)C)C3(C)C)c(C(F)(F)F)nn1C (centres unmarked) [Example 54]
Uromyces appendiculatus
  Eff. %: 83%
[1]; [2]
  logP: 4.66[a]
Puccinia recondita
  Eff. %: 81%

## Cc1nn(C)c(C)c1C(=O)Nc1cccc2c1CC(C)(C)C2C (centres unmarked) [Example 55]
Uromyces appendiculatus
  Eff. %: 100%
Sphaerotheca fuliginea
  Eff. %: 88%
[1]; [2]
  logP: 3.09[a]
Puccinia recondita
  Eff. %: 100%

## CCC1Cc2c(NC(=O)c3c(C)nn(C)c3C(F)(F)Cl)cccc2C1(C)C (centres unmarked) [Example 58]
[1]; [2]
  logP: 4.46[a]

## CCC1Cc2c(NC(=O)c3cnn(C)c3C)cccc2C1(C)C (centres unmarked) [Example 59]
Uromyces appendiculatus
  Eff. %: 100%
[1]; [2]
  logP: 3.42[a]
Puccinia recondita
  Eff. %: 89%

## Cc1nn(C)c(F)c1C(=O)Nc1cccc2c1CC(C)(C)C2C (centres unmarked) [Example 60]
Uromyces appendiculatus
  Eff. %: 100%
Sphaerotheca fuliginea
  Eff. %: 98%
[1]; [2]
  logP: 3.5[a]
Puccinia recondita
  Eff. %: 98%

## Cc1c(C(=O)Nc2cccc3c2CC(C)C3(C)C)c(C(F)(F)Cl)nn1C (centres unmarked) [Example 72]
[1]; [2]
  logP: 3.99[a]

## CC(C)C1Cc2c(N)cccc2C1C (centres unmarked) [Example III-a-5]
[1]; [3]
  logP: 2.34[a]

## CC1c2cccc(N)c2CC12CCCC2 (centres unmarked) [Example III-a-7, 1′-methyl-1′,3′-dihydrospiro[cyclopentane-1,2′-inden]-4′-amine]
[1]; reversed phase HPLC columns, amines of formula (III-a), Table 2, read-out: logP
  chromatographic logP: 2.39

## Nc1cccc2c1CC(Cc1ccccc1)C2 (centres unmarked) [Example III-a-8]
[1]; [3]
  logP: 2.54[a]

## CC1Cc2c(N)cccc2C1C (centres unmarked) [Example III-a-13]
[1]; [3]
  logP: 1.44[a]

## CC1c2c(N)cccc2C(C)(C)C1C (centres unmarked) [Example III-a-14]
[1]; [3]
  logP: 2.4[a]

## CCC1Cc2c(N)cccc2C1(C)C (centres unmarked) [Example III-a-17]
[1]; [3]
  logP: 2.47[a]

## CCC1(CC)Cc2c(N)cccc2C1C (centres unmarked) [Example III-a-18]
[1]; [3]
  logP: 2.63[a]

## Nc1cccc2c1CC1(CCCC1)C2 [III-a-4]
[1]; [3]
  logP: 2.1[a]

## CCC1Cc2cccc(N)c2C1 (centres unmarked) [III-a-6]
[1]; [3]
  logP: 1.76[a]

## CC(C)C1Cc2cccc(N)c2C1C (centres unmarked) [III-a-9]
[1]; [3]
  logP: 2.9[a]

## Nc1cccc2c1CC(C1CCCC1)C2 (centres unmarked) [III-a-11]
[1]; [3]
  logP: 2.94[a]

## CON=C1c2cccc(N)c2CC1(C)C [III-a-12]
[1]; [3]
  logP: 2.08[a]
